{
  "source": "patent US7585503B2",
  "about": "“Method for detecting multi-drug resistance” (priority 2005, dated 2009)",
  "assay_type_in_all_cases": "cell-based, human",
  "key": {"[1]": {"tested_on": "2008/C13*5.25 resistant ovarian carcinoma cells", "test": "Cytotoxicity assay by colony forming ability, resistant cells", "conditions": "25 μM cisplatin with or without 5 mU sialidase, 1 h, about two weeks of growth", "experimental": "To confirm the sialidase effects on F-DDP internalization and sensitizing the resistant cells to the drug, the resistant cells were tested in cytotoxicity assay to determine colony formation ability with cisplatin treatments in the presence and absence of sialidase. Resistant cells were treated with high concentration of cisplatin (25 μM, an IC-50 about 10 fold higher than that of the sensitive cells) in the absence and presence of 5 mU sialidase (see table 1 in “Experimental procedures”). The colony formation ability of MDR cells was reduced 40-50%, when sialidase concomitant with cisplatin was added to the resistant cells compare to the resistant cells treated with the same amounts of cisplatin in the absence of sialidase. The data, thus, support the sialidase-mediated drug internalization and increasing the cytotoxicity of the drug.\nColony forming ability assay was performed by seeding 100 cells/ml of sensitive or resistant isotypes per each well/ml in 12 well plates. Cells were cultured with DMEM, 10% FBS overnight. The assay was performed in 4 plates for each of the sensitive or resistant isotypes in the format shown in Table 1 and was repeated three times. 2008 isotype pair were used in the experiment. […]"}, "[2]": {"tested_on": "2008 sensitive ovarian carcinoma cells", "test": "Cytotoxicity assay by colony forming ability, sensitive cells", "conditions": "25 μM cisplatin, 1 h", "experimental": "Colony forming ability assay was performed by seeding 100 cells/ml of sensitive or resistant isotypes per each well/ml in 12 well plates. Cells were cultured with DMEM, 10% FBS overnight. The assay was performed in 4 plates for each of the sensitive or resistant isotypes in the format shown in Table 1 and was repeated three times. 2008 isotype pair were used in the experiment. Sensitive cells could not tolerate such high concentration of cisplatin, used in the assay, to serve the resistant cells, as the IC-50 was 10 fold higher for resistant cells compare to their parental susceptible phenotype.\nTable 1: Colony forming ability was performed by seeding 100 cells/ml of sensitive or resistant isotypes per each well/ml in 12 well plates. Cells were cultured with DMEM, 10% FBS overnight. The assay was performed in 4 plates for each of the sensitive or resistant isotypes in the above format and was repeated three times for each cell pair. plate 1 (control): DMEM, 10%FBS; plate 2: DMEM containing 25 μM cisplatin; plate 3: DMEM containing 25 μM cisplatin and 5 mU neuraminidase (AUS); plate 4: DMEM containing 5 mU neuraminidase.\nAfter one hour incubation at 37 degree C., 5% CO2, the media of different treatments were removed from the wells. Cells were then washed with DMEM and was replaced by fresh DMEM, 10% FBS. Incubation continued for about two more weeks for the colonies to appear. […]"}, "2008/C13*5.25": {"tested_on": "2008/C13*5.25", "test": "Cisplatin resistance (IC-50) of resistant sub-line versus parental line", "text": "(§1) Three isogenic pairs of sensitive and multidrug resistant phenotypes of human ovarian carcinoma cell lines were studied. […] The morphology of the resistant cells differed from the sensitive isotypes, consistent with the cell surface molecular modifications."}, "IGROV-1/CP": {"tested_on": "IGROV-1/CP", "test": "Cisplatin resistance (IC-50) of resistant sub-line versus parental line", "conditions": "IGROV-1/CP versus parental IGROV-1", "text": "as §1"}, "A2780/CP": {"tested_on": "A2780/CP", "test": "Cisplatin resistance (IC-50) of resistant sub-line versus parental line", "text": "as §1"}},
  "data": [
    {"compound": "N.N.[Cl][Pt][Cl]", "note": "[cisplatin, Dichlorodiaminocisplatin]", "values": [
      {"measurement": "cell growth / colony formation relative to control (plate #1 = 100% growth)", "setting": "[1]", "result": "about 80 % of the control"},
      {"measurement": "colony formation (in words)", "setting": "[2]", "result": "almost no real colony formed"},
      {"measurement": "fold increase in IC-50 to cisplatin resistance", "setting": "2008/C13*5.25; 2008/C13*5.25 versus parental 2008", "result": 10.4, "unit": "fold"},
      {"measurement": "IC50", "setting": "2008/C13*5.25; resistant cells, the concentration used in the colony assay", "result": 25, "unit": "µM"},
      {"measurement": "fold increase in IC-50 to cisplatin resistance", "setting": "IGROV-1/CP", "result": 7.6, "unit": "fold"},
      {"measurement": "fold increase in IC-50 to cisplatin resistance", "setting": "A2780/CP", "result": 6.9, "unit": "fold"}
    ]}
  ]
}
